Test results from patent US9808470B2, “Estrogenic components for use in the treatment of neurological disorders” (UNIVERSITE DE LIEGE, priority 2012, dated 2017).

How the values were obtained:
[1] = test system: intact cells in hippocampus and cortex; assay: Ex.2 neonatal HIE rat model, pre-treatment: hematoxylin-eosin staining and intact cell counting; type: in vivo
Protocol: Paraformaldehyde-fixed paraffin embedded samples of the removed brains were coronally sectioned at the same level of the hippocampus region in accordance to the Paxinos rat brain atlas (Paxinos and Watson 2007. In: The rat brain in stereotaxic coordinates, 6th edition). Thickness of sections was 5 μm. Hematoxylin-eosin staining was performed. Briefly, sections were deparaffinized in xylene and rehydrated in graded ethanol concentrations before staining. Slides were stained with hematoxylin, rinsed for a few seconds in water, then placed in 1% eosin and washed, dehydrated, and coverslipped.
Intact cell counting was performed on hematoxylin-eosin-stained sections of the rat pups brains at magnification 400× in 3 fields of the respective brain area. Countings were performed in cortex and hippocampus (regions: dentate gyrus (DG), subgranular zone (SGZ), cornu ammonis (CA1, CA2/CA3)). The sections were analyzed with the aid of a microscope (Olympus BX51, Olympus, Tokyo, Japan), an image scanner (DotSlide Digital Virtual Microscopy, Olympus, Germany) and ImageJ software (NIH, US).
Intact cells are uninjured. Injured cells are characterized by a pale eosinophilic staining along with non-uniform nuclear densities-shrunken, condensed, or pale and enlarged.
After delivery, newborn rat pups were assigned to one of the following 4 groups: Sham group, Vehicle group, E4 5 mg/kg/per day group and E4 50 mg/kg/per day group. From day 4 to day 7 inclusive, rat pups were injected intraperitoneally either vehicle (Vehicle group) or E4 (5 mg/kg or 50 mg/kg in accordance to the group assignment) or not injected at all (Sham group). At day 7, 30 minutes after last injection, animals from Vehicle and E4 (5 mg/kg or 50 mg/kg) groups passed through surgery encompassing left common carotid artery double ligation and cut, followed by hypoxia produced by the inhalation of 11%-8% of oxygen balanced by nitrogen at decreased concentration for 20 minutes, followed by inhalation of 8% oxygen and 92% nitrogen at constant concentration for 35 minutes. The Sham group went through similar procedures without left common carotid artery ligation and hypoxia. All the manipulations were performed at 37° C. Rat pups recovered with their dams until being sacrificed at postnatal day 14.

[2] = test system: Microtubule-associated protein 2 (MAP2); assay: Ex.8 neuroprotective HIE rat model: MAP2 staining; type: in vivo; conditions: 10 mg/kg/day E4
Protocol: Newborn rat pups were assigned to one of the following 14 groups from postnatal day 4 (FIG. 23(A)): Sham group (n=12), Vehicle group (n=17), 5 mg/kg/day E4 (n=13), 10 mg/kg/day E4 (n=10), 5 mg/kg/day E4+1.6 mg/kg/day PROG (n=11), 10 mg/kg/day E4+1.6 mg/kg/day PROG (n=11), 5 mg/kg/day E4+16 mg/kg/day PROG (n=11), 10 mg/kg/day E4+16 mg/kg/day PROG (n=11), 5 mg/kg/day E4+136 ng//kg/day E2 (n=11), 10 mg/kg/day E4+136 ng/kg/day E2 (n=11), 5 mg/kg/day E4+1.6 mg/kg/day PROG+136 ng/kg/day (n=13) E2, 10 mg/kg/day E4+1.6 mg/kg/day PROG+136 ng/kg/day E2 (n=16), 5 mg/kg/day E4+16 mg/kg/day PROG+136 ng/kg/day E2 (n=11), 10 mg/kg/day E4+16 mg/kg/day PROG+136 ng/kg/day groups (n=13). Intraperitoneal injections of the pups from study groups were performed from postnatal day 4 to postnatal day 7 inclusively. […]
The brain sections were processed for immunohistochemical detection of neuronal cytoskeletal disruption. […] Samples were analyzed with the aid of an image scanner (Nanozoomer Virtual Microscopy, Hamamatsu, Tokyo, Japan) and the ImageJ software (NIH, US). The positive areas in the ipsilateral and contralateral hemispheres were measured. The ratio of the MAP2 positive areas was calculated as the MAP2 positive area of the ipsilateral hemisphere divided by the MAP2 positive area of the contralateral hemisphere. […]

C[C@]12CC[C@@H]3c4ccc(O)cc4CC[C@H]3[C@@H]1[C@@H](O)[C@@H](O)[C@@H]2O [E4, 1,3,5(10)-estratrien-3,15α,16α,17β-tetrol]
number of intact cells per visual field ([1]; E4 5 mg/kg ip day 4-7 before HI, DG, vs Vehicle): significantly higher | number of intact cells per visual field ([1]; E4 5 mg/kg ip day 4-7 before HI, SGZ, vs Sham and Vehicle): significantly higher | number of intact cells per visual field ([1]; E4 50 mg/kg ip day 4-7 before HI, CA2/CA3, vs Vehicle and E4 5 mg/kg): significantly higher number of intact cells | number of intact cells per visual field ([1]; E4 50 mg/kg ip day 4-7 before HI, cortex, vs Vehicle): significantly higher number of intact cells | number of intact cells per visual field ([1]; E4 5 and 50 mg/kg ip day 4-7 before HI, CA1, among study groups): non-significant difference | Hematoxylin-Eosin staining of hippocampus region ([1]; E4 5 and 50 mg/kg ip day 4-7 before HI, day 14): neuroprotective effect | ratio of MAP2-positive area (ipsilateral/contralateral) [2]: 0.97±0.01
